{"source": "patent US9902716B2", "about": "“Fluorinated benzofuranyl-pyrimidine derivatives containing a sulfone group” (Bayer Pharma Aktiengesellschaft, priority 2014, dated 2018)", "key": {"CDK2/CycE": {"target": "T1, CDK2/CycE (Homo sapiens, UniProt P24941)", "T1 construct": "GST; purchased ProQinase GmbH (Freiburg, Germany); host or cells: insect cells (Sf9)", "experiment": "CDK2/CycE kinase assay (Method 2a, TR-FRET)", "type": "biochemical", "conditions": "10 μM ATP", "from_the_text": "2a. CDK2/CycE Kinase Assay:\nCDK2/CycE-inhibitory activity of compounds of the present invention was quantified employing the CDK2/CycE TR-FRET assay as described in the following paragraphs:\nRecombinant fusion proteins of GST and human CDK2 and of GST and human CycE, expressed in insect cells (Sf9) and purified by Glutathion-Sepharose affinity chromatography, were purchased from ProQinase GmbH (Freiburg, Germany). As substrate for the kinase reaction biotinylated peptide biotin-Ttds-YISPLKSPYKISEG (C-terminus in amid form) was used which can be purchased e.g. form the company JERINI Peptide Technologies (Berlin, Germany).\nFor the assay 50 nl of a 100 fold concentrated solution of the test compound in DMSO was pipetted into a black low volume 384 well microtiter plate (Greiner Bio-One, Frickenhausen, Germany), 2 μl of a solution of CDK2/CycE in aqueous assay buffer [50 mM Tris/HCl pH 8.0, 10 mM MgCl2, 1.0 mM dithiothreitol, 0.1 mM sodium ortho-vanadate, 0.01% (v/v) Nonidet-P40 (Sigma)] were added and the mixture was incubated for 15 min at 22° C. to allow pre-binding of the test compounds to the enzyme before the start of the kinase reaction. Then the kinase reaction was started by the addition of 3 μl of a solution of adenosine-tri-phosphate (ATP, 16.7 μM=> final conc. in the 5 μl assay volume is 10 μM) and substrate (1.25 μM=> final conc. in the 5 μl assay volume is 0.75 μM) in assay buffer and the resulting mixture was incubated for a reaction time of 25 min at 22° C. […]\nThe resulting mixture was incubated 1 h at 22° C. to allow the formation of complex between the phosphorylated biotinylated peptide and the detection reagents. Subsequently the amount of phosphorylated substrate was evaluated by measurement of the resonance energy transfer from the Euchelate to the streptavidine-XL. Therefore, the fluorescence emissions at 620 nm and 665 nm after excitation at 350 nm was measured in a TR-FRET reader, e.g. a Rubystar (BMG Labtechnologies, Offenburg, Germany) or a Viewlux (Perkin-Elmer). […]"}, "CDK9/CycT1": {"target": "T2, CDK9/CycT1 (Homo sapiens, UniProt P50750)", "T2 construct": "Recombinant full-length His-tagged human CDK9 and CycT1; His; purchased Invitrogen PV4131; host or cells: insect cells", "T2 sequence (P50750 whole entry)": "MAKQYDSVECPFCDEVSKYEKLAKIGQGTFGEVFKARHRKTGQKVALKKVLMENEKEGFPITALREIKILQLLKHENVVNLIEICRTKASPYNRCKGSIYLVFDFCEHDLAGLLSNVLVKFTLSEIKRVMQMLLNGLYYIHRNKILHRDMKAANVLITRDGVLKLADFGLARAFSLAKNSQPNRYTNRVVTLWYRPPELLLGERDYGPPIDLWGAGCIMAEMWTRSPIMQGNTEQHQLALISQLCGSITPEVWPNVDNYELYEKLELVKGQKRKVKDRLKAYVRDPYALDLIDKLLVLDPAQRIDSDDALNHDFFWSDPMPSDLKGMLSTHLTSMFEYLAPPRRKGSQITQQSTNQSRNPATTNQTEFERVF", "T2 sequence (O60563 whole entry partner)": "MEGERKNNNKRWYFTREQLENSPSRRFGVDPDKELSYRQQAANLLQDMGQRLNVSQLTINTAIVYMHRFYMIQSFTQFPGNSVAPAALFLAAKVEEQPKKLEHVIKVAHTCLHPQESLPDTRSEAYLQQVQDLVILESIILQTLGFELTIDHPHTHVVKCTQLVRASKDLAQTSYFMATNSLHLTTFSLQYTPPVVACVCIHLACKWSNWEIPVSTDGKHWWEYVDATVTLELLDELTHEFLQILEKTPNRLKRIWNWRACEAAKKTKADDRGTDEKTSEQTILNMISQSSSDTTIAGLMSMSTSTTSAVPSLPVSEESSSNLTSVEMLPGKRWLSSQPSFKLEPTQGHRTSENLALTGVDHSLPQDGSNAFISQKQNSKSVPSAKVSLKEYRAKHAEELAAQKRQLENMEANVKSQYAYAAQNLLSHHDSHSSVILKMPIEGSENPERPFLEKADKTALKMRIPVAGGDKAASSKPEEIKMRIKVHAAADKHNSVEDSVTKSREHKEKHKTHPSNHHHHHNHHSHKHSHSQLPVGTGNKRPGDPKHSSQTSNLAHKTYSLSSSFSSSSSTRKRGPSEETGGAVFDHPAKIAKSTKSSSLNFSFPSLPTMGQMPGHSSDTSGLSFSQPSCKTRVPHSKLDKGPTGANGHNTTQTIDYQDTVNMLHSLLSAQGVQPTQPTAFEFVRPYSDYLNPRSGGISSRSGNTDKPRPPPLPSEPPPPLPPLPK", "experiment": "CDK9/CycT1 high ATP kinase assay (Method 1b, TR-FRET)", "type": "biochemical", "conditions": "2 mM ATP; for IC50: Method 1b; for Selectivity high ATP CDK9 over high ATP CDK2: IC50 (high ATP CDK2)/IC50 (high ATP CDK9): Methods 1b and 2b", "experimental": "1b. CDK9/CycT1 High ATP Kinase Assay\nCDK9/CycT1-inhibitory activity of compounds of the present invention at a high ATP concentration after preincubation of enzyme and test compounds was quantified employing the CDK9/CycT1 TR-FRET assay as described in the following paragraphs.\nRecombinant full-length His-tagged human CDK9 and CycT1, expressed in insect cells and purified by Ni-NTA affinity chromatography, were purchase from Invitrogen (Cat. No PV4131). As substrate for the kinase reaction biotinylated peptide biotin-Ttds-YISPLKSPYKISEG (C-terminus in amid form) was used which can be purchased e.g. form the company JERINI peptide technologies (Berlin, Germany). For the assay 50 nl of a 100 fold concentrated solution of the test compound in DMSO was pipetted into a black low volume 384 well microtiter plate (Greiner Bio-One, Frickenhausen, Germany), 2 μl of a solution of CDK9/CycT1 in aqueous assay buffer [50 mM Tris/HCl pH 8.0, 10 mM MgCl2, 1.0 mM dithiothreitol, 0.1 mM sodium ortho-vanadate, 0.01% (v/v) Nonidet-P40 (Sigma)] were added and the mixture was incubated for 15 min at 22° C. to allow pre-binding of the test compounds to the enzyme before the start of the kinase reaction. Then the kinase reaction was started by the addition of 3 μl of a solution of adenosine-tri-phosphate (ATP, 3.3 mM=> final conc. in the 5 μl assay volume is 2 mM) and substrate (1.67 μM=> final conc. in the 5 μl assay volume is 1 μM) in assay buffer and the resulting mixture was incubated for a reaction time of 25 min at 22° C. The concentration of CDK9/CycT1 was adjusted depending of the activity of the enzyme lot and was chosen appropriate to have the assay in the linear range, typical concentrations were in the range of 0.5 μg/mL. The reaction was stopped by the addition of 5 μl of a solution of TR-FRET detection reagents (0.2 μM streptavidine-XL665 [Cisbio Bioassays, Codolet, France] and 1 nM anti-RB(pSer807/pSer811)-antibody from BD Pharmingen [#558389] and 1.2 nM LANCE EU-W1024 labeled anti-mouse IgG antibody [Perkin-Elmer, product no. AD0077]) in an aqueous EDTA-solution (100 mM EDTA, 0.2% (w/v) bovine serum albumin in 100 mM HEPES/NaOH pH 7.0).\nThe resulting mixture was incubated 1 h at 22° C. to allow the formation of complex between the phosphorylated biotinylated peptide and the detection reagents. Subsequently the amount of phosphorylated substrate was evaluated by measurement of the resonance energy transfer from the Euchelate to the streptavidine-XL. Therefore, the fluorescence emissions at 620 nm and 665 nm after excitation at 350 nm was measured in a HTRF reader, e.g. a Rubystar (BMG Labtechnologies, Offenburg, Germany) or a Viewlux (Perkin-Elmer). The ratio of the emissions at 665 nm and at […] was taken as the measure for the amount of phosphorylated substrate. The data were normalised (enzyme reaction without inhibitor=0% inhibition, all other assay components but no enzyme=100% inhibition)."}}}
{"smiles": "CS(=O)(=O)Cc1cccc(Nc2ncc(F)c(-c3ccc(F)c4ccoc34)n2)c1", "note": "[Example 1, 5-Fluoro-4-(4-fluoro-1-benzofuran-7-yl)-N-{3-[(methylsulfonyl)methyl]-phenyl}pyrimidin-2-amine]", "values": [{"measurement": "IC50", "setting": "CDK2/CycE", "result": 175, "unit": "nM"}, {"measurement": "IC50", "setting": "CDK9/CycT1", "result": 9, "unit": "nM"}, {"measurement": "Selectivity high ATP CDK9 over high ATP CDK2: IC50 (high ATP CDK2)/IC50 (high ATP CDK9)", "setting": "CDK9/CycT1", "result": 147}]}
{"smiles": "CCS(=O)(=O)Cc1cccc(Nc2ncc(F)c(-c3ccc(F)c4ccoc34)n2)c1", "note": "[Example 2, N-{3-[(Ethylsulfonyl)methyl]phenyl}-5-fluoro-4-(4-fluoro-1-benzofuran-7-yl)pyrimidin-2-amine]", "values": [{"measurement": "IC50", "setting": "CDK2/CycE", "result": 112, "unit": "nM"}, {"measurement": "IC50", "setting": "CDK9/CycT1", "result": 9, "unit": "nM"}, {"measurement": "Selectivity high ATP CDK9 over high ATP CDK2: IC50 (high ATP CDK2)/IC50 (high ATP CDK9)", "setting": "CDK9/CycT1", "result": 102}]}
{"smiles": "Cc1cc(CS(C)(=O)=O)cc(Nc2ncc(F)c(-c3ccc(F)c4ccoc34)n2)c1", "note": "[Example 4, 5-Fluoro-4-(4-fluoro-1-benzofuran-7-yl)-N-{3-methyl-5-[(methylsulfonyl)methyl]-phenyl}pyrimidin-2-amine]", "values": [{"measurement": "IC50", "setting": "CDK2/CycE", "result": 57, "unit": "nM"}, {"measurement": "IC50", "setting": "CDK9/CycT1", "result": 1, "unit": "nM"}, {"measurement": "Selectivity high ATP CDK9 over high ATP CDK2: IC50 (high ATP CDK2)/IC50 (high ATP CDK9)", "setting": "CDK9/CycT1", "result": 8560}]}
{"smiles": "CS(=O)(=O)Cc1cc(F)cc(Nc2ncc(F)c(-c3ccc(F)c4ccoc34)n2)c1", "note": "[Example 3]", "values": [{"measurement": "IC50", "setting": "CDK9/CycT1", "result": 2, "unit": "nM"}]}
